Measured values published in ChEMBL document CHEMBL1139672, “1,2,3,4-Tetrahydroisoquinolinyl sulfamic acids as phosphatase PTP1B inhibitors” (Bioorg Med Chem Lett, 2006).
pIC50: −log10 of the molar value.

Molecular target: T1, Tyrosine-protein phosphatase non-receptor type 1 (Homo sapiens, UniProt P18031)
T1 sequence (P18031 whole entry): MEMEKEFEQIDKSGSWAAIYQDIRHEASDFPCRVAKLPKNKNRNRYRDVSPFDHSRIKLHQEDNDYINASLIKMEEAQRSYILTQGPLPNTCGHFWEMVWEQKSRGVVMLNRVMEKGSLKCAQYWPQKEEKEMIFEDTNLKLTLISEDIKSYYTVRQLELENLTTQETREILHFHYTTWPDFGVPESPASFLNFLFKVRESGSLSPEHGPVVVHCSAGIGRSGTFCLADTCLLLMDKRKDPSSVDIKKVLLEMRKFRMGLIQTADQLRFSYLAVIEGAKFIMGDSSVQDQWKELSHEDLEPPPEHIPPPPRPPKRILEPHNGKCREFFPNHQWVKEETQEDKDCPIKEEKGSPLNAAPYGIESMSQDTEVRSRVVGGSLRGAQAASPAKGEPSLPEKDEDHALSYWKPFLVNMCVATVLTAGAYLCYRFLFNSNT
Experiment: Inhibition of PTP1B

| pIC50 | Structure (SMILES) |
| --- | --- |
| 3.81 | CNC(=O)[C@@H]1Cc2ccc(NS(=O)(=O)O)cc2CN1C(=O)CCC(=O)O |
| 4.29 | CC(C)(C)OC(=O)N1Cc2cc(NS(=O)(=O)O)ccc2C[C@H]1C(=O)NCCc1ccccc1 |
| < 3.30 | CC(C)(C)OC(=O)N1Cc2cc(NS(=O)(=O)O)ccc2C[C@H]1CO |
| 4.37 | CNC(=O)[C@@H]1Cc2ccc(NS(=O)(=O)O)cc2CN1C(=O)OC(C)(C)C |
| 3.57 | CNC(=O)[C@@H]1Cc2ccc(NS(=O)(=O)O)cc2CN1C(=O)CCCc1ccccc1 |
| 4.09 | CNC(=O)[C@@H]1Cc2ccc(NS(=O)(=O)O)cc2CN1C(=O)CCc1cccc(O)c1 |
| 4.40 | CNC(=O)[C@H](Cc1ccc(NS(=O)(=O)O)cc1)NC(=O)OC(C)(C)C |
| 3.70 | CNC(=O)[C@@H]1Cc2ccc(NS(=O)(=O)O)cc2CN1C(=O)CCc1ccc(C)cc1 |
| 3.79 | CNC(=O)[C@@H]1Cc2ccc(NS(=O)(=O)O)cc2CN1C(=O)NCc1ccccc1 |
| 3.92 | CC(C)(C)OC(=O)N1Cc2cc(NS(=O)(=O)O)ccc2C[C@H]1C(=O)NCc1ccccc1 |
| 4.00 | CNC(=O)[C@@H]1Cc2ccc(NS(=O)(=O)O)cc2CN1C(=O)CCc1cccc(Cl)c1 |
| 4.78 | CC(C)COC(=O)[C@@H]1Cc2ccc(NS(=O)(=O)O)cc2CN1C(=O)OC(C)(C)C |
| 3.83 | CNC(=O)[C@@H]1Cc2ccc(NS(=O)(=O)O)cc2CN1C(=O)CCCCc1ccccc1 |
| 3.84 | CNC(=O)[C@@H]1Cc2ccc(NS(=O)(=O)O)cc2CN1C(=O)CCc1cccc(C(F)(F)F)c1 |
| 5.08 | Cc1noc([C@@H]2Cc3ccc(NS(=O)(=O)O)cc3CN2C(=O)OC(C)(C)C)n1 |
| 3.65 | CNC(=O)[C@@H]1Cc2ccc(NS(=O)(=O)O)cc2CN1C(=O)CCc1ccc(C(F)(F)F)cc1 |
| 4.59 | O=C(CCc1cccc(NS(=O)(=O)O)c1)N1CCc2ccc(NS(=O)(=O)O)cc2C1 |
| < 3.30 | CNC(=O)[C@@H]1Cc2ccc(NS(=O)(=O)O)cc2CN1C(=O)[C@H](Cc1ccccc1)NC(=O)OC(C)(C)C |
| 4.08 | CNC(=O)[C@@H]1Cc2ccc(NS(=O)(=O)O)cc2CN1C(=O)CCOc1ccccc1 |
| 4.44 | CNC(=O)[C@@H]1Cc2ccc(NS(=O)(=O)O)cc2CN1C(=O)CCc1coc2ccccc12 |
| 3.74 | CNC(=O)[C@@H]1Cc2ccc(NS(=O)(=O)O)cc2CN1C(=O)CCc1cc(NS(C)(=O)=O)cc(C(F)(F)F)c1 |
| 4.02 | CNC(=O)[C@@H]1Cc2ccc(NS(=O)(=O)O)cc2CN1C(=O)COc1ccccc1 |
| 4.19 | CNC(=O)[C@@H]1Cc2ccc(NS(=O)(=O)O)cc2CN1C(=O)CCc1ccccc1 |
| 4.03 | CNC(=O)[C@@H]1Cc2ccc(NS(=O)(=O)O)cc2CN1C(=O)COc1cccc(O)c1C(=O)OC |
| 4.60 | CNC(=O)[C@@H]1Cc2ccc(NS(=O)(=O)O)cc2CN1C(=O)/C=C/c1coc2ccccc12 |
| 4.72 | COC(=O)[C@@H]1Cc2ccc(NS(=O)(=O)O)cc2CN1C(=O)OC(C)(C)C |
| 3.54 | CNC(=O)[C@@H]1Cc2ccc(NS(=O)(=O)O)cc2CN1C(=O)c1ccccc1 |
| 3.62 | CNC(=O)[C@@H]1Cc2ccc(NS(=O)(=O)O)cc2CN1C(=O)CCc1ccc(OC)cc1 |

Molecular target: T2, Tyrosine-protein phosphatase non-receptor type 2 (Homo sapiens, UniProt P17706)
T2 sequence (P17706 whole entry): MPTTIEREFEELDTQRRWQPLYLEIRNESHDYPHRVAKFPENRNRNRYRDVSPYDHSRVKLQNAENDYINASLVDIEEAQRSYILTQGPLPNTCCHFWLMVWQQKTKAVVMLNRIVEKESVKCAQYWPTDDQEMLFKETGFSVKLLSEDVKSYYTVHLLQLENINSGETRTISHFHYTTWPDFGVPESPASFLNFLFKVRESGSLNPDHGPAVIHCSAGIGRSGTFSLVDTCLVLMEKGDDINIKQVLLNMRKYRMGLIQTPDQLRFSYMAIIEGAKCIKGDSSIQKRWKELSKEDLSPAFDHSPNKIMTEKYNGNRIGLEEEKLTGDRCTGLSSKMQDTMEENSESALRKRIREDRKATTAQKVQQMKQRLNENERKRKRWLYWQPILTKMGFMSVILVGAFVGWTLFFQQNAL
Experiment: Inhibition of TCPTP

| pIC50 | Structure (SMILES) |
| --- | --- |
| 3.77 | CNC(=O)[C@@H]1Cc2ccc(NS(=O)(=O)O)cc2CN1C(=O)OC(C)(C)C |
| 4.10 | CNC(=O)[C@H](Cc1ccc(NS(=O)(=O)O)cc1)NC(=O)OC(C)(C)C |
| 3.69 | O=C(CCc1cccc(NS(=O)(=O)O)c1)NCc1cccc(NS(=O)(=O)O)c1 |
| 4.16 | O=C(CCc1cccc(NS(=O)(=O)O)c1)N1CCc2ccc(NS(=O)(=O)O)cc2C1 |
